{"source": "patent US7393812B2", "about": "“Methylidene mevalonates and their use as herbicides” (Dow AgroSciences LLC, priority 2004, dated 2008)", "type_in_all_cases": "in vivo", "key": {"[1]": {"system": "blackgrass (Alopecurus myosuroides, ALOMY)", "assay": "General herbicidal evaluation, postemergence", "settings": "16 days after treatment", "description": "(§1) Applications of methylidene mevalonate were made either to the foliage (postemergence) or soil (preemergence). Seeds of sunflower (Helianthus annus, HELAN), morningglory (Ipomoea hederacea, IPOHE) velvetleaf (Abutilon theophrasti, ABUTH), pigweed (Amaranthus spp., AMARE), barnyardgrass (Echinochloa crusgalli, ECHCG), giant foxtail (Setaria faberi, SETFA), wild oats (Avena fatua, AVEFA), and blackgrass (Alopecurus myosuroides, ALOMY) were planted in mineral soil (sandy clay loam, 51% sand, 26% silt, 23% clay, 2.8% O.M., pH 7.8) and Metro-mix (Bulk Sak, Inc., Malvern, Ark., USA) for preemergence and postemergence treatments, respectively. Pots receiving preemergence treatments were watered immediately following application. Prior to postemergence treatment, plants were grown in the greenhouse (16 h photoperiod, 27 C) and thinned to a density of 2 to 15 plants pot^−1, depending on species. At the time of postemergence applications, plants were 8-12 days old, 3 to 10 cm in height, and in the 1- to 3-true-leaf stage. Natural light in the greenhouse was supplemented with metal halide lights that provided an average photosynthetic photon flux of 500 μmol m^−2s^−1.\n(§2) A sample of sodium methylidene mevalonate was dissolved in 4 mL of distilled water followed by 10 mL of formulation stock “B” (200 mL isopropanol, 20 mL crop oil concentrate, 0.4 g Triton X-155 [Sigma Chemical Co., St. Louis, Mo. 62718], and 78 mL water). This was followed by three 1:1 (v/v) serial dilutions using formulation stock “C” (100 mL isopropanol, 10 mL crop oil concentrate, 0.2 g Triton X-155, 390 mL water, 485 mL acetone and 15 mL DMSO).\n(§3) Treatments were made at four different doses (4000, 2000, 1000, and 500 g ha^−1). For preemergence treatments, 1.75 mL of spray solution were applied to the soil surface in each pot using a glass Cornwall syringe fitted with a Teejet SS8001E flat-fan nozzle (Spraying Systems Co., Wheaton, Ill. 60189-7900). For postemergence applications, the foliage of the test plants was sprayed using a DeVilbiss atomizer (DeVilbiss Health Car, Inc., Somerset, Pa. 15501) driven by compressed air at a pressure of 22 kPa. Untreated controls were included.\n(§4) Pots were placed in the greenhouse following compound application. Pots from postemergence and preemergence were sub-irrigated and top-watered, respectively, as needed for the duration of the test. […]"}, "[2]": {"system": "giant foxtail (Setaria faberi, SETFA)", "assay": "General herbicidal evaluation, postemergence", "settings": "16 days after treatment", "description": "as §1, §2, §3, §4"}, "[3]": {"system": "barnyardgrass (Echinochloa crusgalli, ECHCG)", "assay": "General herbicidal evaluation, postemergence", "settings": "16 days after treatment", "description": "as §1, §2, §3, §4"}, "[4]": {"system": "sunflower (Helianthus annus, HELAN)", "assay": "General herbicidal evaluation, postemergence", "settings": "16 days after treatment", "description": "as §1, §2, §3, §4"}, "[5]": {"system": "pigweed (Amaranthus spp., AMARE)", "assay": "General herbicidal evaluation, postemergence", "settings": "16 days after treatment", "description": "as §1, §2, §3, §4"}, "[6]": {"system": "BW ave", "assay": "Post-emergent evaluation, average", "settings": "after 2 weeks", "experimental": "(§5) Seeds of the desired test plant species were planted in Grace-Sierra MetroMix® 306 planting mixture, which typically has a pH of 6.0 to 6.8 and an organic matter content of about 30 percent, in plastic pots with a surface area of 64 square centimeters. When required to ensure good germination and healthy plants, a fungicide treatment and/or other chemical or physical treatment was applied. The plants were grown for 7-21 days in a greenhouse with an approximate 15 hr photoperiod which was maintained at about 23-29° C. during the day and 22-28° C. during the night. Nutrients and water were added on a regular basis and supplemental lighting was provided with overhead metal halide 1000-Watt lamps as necessary. The plants were employed for testing when they reached the first or second true leaf stage.\n(§6) A weighed amount, determined by the highest rate to be tested, of each test compound was placed in a 20 mL glass vial and was dissolved in 4 mL of a 97:3 v/v (volume/volume) mixture of acetone and dimethyl sulfoxide (DMSO) to obtain concentrated stock solutions. […] The concentrated stock solutions obtained were diluted with an aqueous mixture containing acetone, water, isopropyl alcohol, DMSO, Atplus 411F crop oil concentrate, and Triton X-155 surfactant in a 48.5:39:10:1.5:1.0:0.02 v/v ratio to obtain spray solutions of known concentration. The solutions containing the highest concentration to be tested were prepared by diluting 2 mL aliquots of the stock solution with 13 mL of the mixture and lower concentrations were prepared by serial dilution of the stock solution. Approximately 1.5 mL aliquots of each solution of known concentration were sprayed evenly onto each of the test plant pots using a DeVilbiss atomizer driven by compressed air pressure of 2 to 4 psi ([…]) to obtain thorough coverage of each plant. Control plants were sprayed in the same manner with the aqueous mixture. In this test an application rate of 1 ppm results in the application of approximately 1 g/Ha.\n(§7) The treated plants and control plants were placed in a greenhouse as described above and watered by sub-irrigation to prevent wash-off of the test compounds. After 2 weeks the condition of the test plants as compared with that of the untreated plants was determined visually and scored on a scale of 0 to 100 percent where 0 corresponds to no injury and 100 corresponds to complete kill. Species abbreviations as described for Table I with the following additions: soybean (Glycine max, GLXMA), rape (Brassica napus, BRSNN), chickweed (Stellaria media, STEME), cocklebur (Xanthium strumarium XANST), lambsquarters (Chenopodium album, CHEAL), violet (Viola tricolor, VIOTR), bindweed (Polygonum convolvulus, POLCO), spurge (Euphorbia heterophylla, EPHHL), Canada thistle (Cirsium arvense, CIRAR), corn (Zea mays, ZEAMX), rice (Oryza sativa, ORYSA), wheat (Triticum aestivum, TRZAS), crabgrass (Digitaria sanguinalis, DIGSA), shattercane (Sorghum vulgare, SORVU) and yellow nutsedge (Cyperus esculentus, CYPES)."}, "[7]": {"system": "GW ave", "assay": "Post-emergent evaluation, average", "settings": "after 2 weeks", "experimental": "as §5, §6, §7"}}, "data": [{"smiles": "C=C(CO)C(C)(O)CC(=O)O", "note": "(stereo not drawn) [methylidene mevalonate, 3-hydroxy-4-(hydroxymethyl)-3-methylpent-4-enoic acid]", "values": [{"measurement": "Visual Injury (%)", "setting": "[1]; 0.5 kg ha^−1, ALOMY", "result": 30, "unit": "%"}, {"measurement": "Visual Injury (%)", "setting": "[1]; 1.0 kg ha^−1, ALOMY", "result": 30, "unit": "%"}, {"measurement": "Visual Injury (%)", "setting": "[1]; 2.0 kg ha^−1, ALOMY", "result": 60, "unit": "%"}, {"measurement": "Visual Injury (%)", "setting": "[1]; 4.0 kg ha^−1, ALOMY", "result": 60, "unit": "%"}, {"measurement": "Visual Injury (%)", "setting": "[2]; 0.5 kg ha^−1, SETFA", "result": 40, "unit": "%"}, {"measurement": "Visual Injury (%)", "setting": "[2]; 1.0 kg ha^−1, SETFA", "result": 50, "unit": "%"}, {"measurement": "Visual Injury (%)", "setting": "[2]; 2.0 kg ha^−1, SETFA", "result": 50, "unit": "%"}, {"measurement": "Visual Injury (%)", "setting": "[2]; 4.0 kg ha^−1, SETFA", "result": 70, "unit": "%"}, {"measurement": "Visual Injury (%)", "setting": "[3]; 0.5 kg ha^−1, ECHCG", "result": 60, "unit": "%"}, {"measurement": "Visual Injury (%)", "setting": "[3]; 1.0 kg ha^−1, ECHCG", "result": 70, "unit": "%"}, {"measurement": "Visual Injury (%)", "setting": "[3]; 2.0 kg ha^−1, ECHCG", "result": 70, "unit": "%"}, {"measurement": "Visual Injury (%)", "setting": "[3]; 4.0 kg ha^−1, ECHCG", "result": 90, "unit": "%"}, {"measurement": "Visual Injury (%)", "setting": "[4]; 0.5 kg ha^−1, HELAN", "result": 30, "unit": "%"}, {"measurement": "Visual Injury (%)", "setting": "[4]; 1.0 kg ha^−1, HELAN", "result": 40, "unit": "%"}, {"measurement": "Visual Injury (%)", "setting": "[4]; 2.0 kg ha^−1, HELAN", "result": 60, "unit": "%"}, {"measurement": "Visual Injury (%)", "setting": "[4]; 4.0 kg ha^−1, HELAN", "result": 70, "unit": "%"}, {"measurement": "Visual Injury (%)", "setting": "[5]; 0.5 kg ha^−1, AMARE", "result": 30, "unit": "%"}, {"measurement": "Visual Injury (%)", "setting": "[5]; 1.0 kg ha^−1, AMARE", "result": 50, "unit": "%"}, {"measurement": "Visual Injury (%)", "setting": "[5]; 2.0 kg ha^−1, AMARE", "result": 40, "unit": "%"}, {"measurement": "Visual Injury (%)", "setting": "[5]; 4.0 kg ha^−1, AMARE", "result": 50, "unit": "%"}, {"measurement": "Postemergent % Control, BW ave", "setting": "[6]; spray concentration 125 ppm", "result": 11, "unit": "%"}, {"measurement": "Postemergent % Control, BW ave", "setting": "[6]; spray concentration 250 ppm", "result": 15, "unit": "%"}, {"measurement": "Postemergent % Control, BW ave", "setting": "[6]; spray concentration 500 ppm", "result": 37, "unit": "%"}, {"measurement": "Postemergent % Control, BW ave", "setting": "[6]; spray concentration 1000 ppm", "result": 54, "unit": "%"}, {"measurement": "Postemergent % Control, BW ave", "setting": "[6]; spray concentration 2000 ppm", "result": 63, "unit": "%"}, {"measurement": "Postemergent % Control, GW ave", "setting": "[7]; spray concentration 125 ppm", "result": 12, "unit": "%"}, {"measurement": "Postemergent % Control, GW ave", "setting": "[7]; spray concentration 250 ppm", "result": 39, "unit": "%"}, {"measurement": "Postemergent % Control, GW ave", "setting": "[7]; spray concentration 500 ppm", "result": 64, "unit": "%"}, {"measurement": "Postemergent % Control, GW ave", "setting": "[7]; spray concentration 1000 ppm", "result": 82, "unit": "%"}, {"measurement": "Postemergent % Control, GW ave", "setting": "[7]; spray concentration 2000 ppm", "result": 88, "unit": "%"}]}]}
